From patent US11077116B2, “Isoxazole derivatives as inducers of fetal hemoglobin in erythroid precursor cells from beta-thalassemic patients” (RARE PARTNERS SRL, priority 2017, dated 2021)

Tested on: ErPCs (erythroid precursor cells) of β-thalassemic patients
Test: HPLC analysis of hemoglobins in cell lysates of treated ErPCs (two-phase liquid culture)
Format: cell-based, human
Settings: for HbF induction: patient Th1 ErPCs (Table II); for HbF induction compared with HU: patient Th10 ErPCs (Table III); for HbF level in treated cells (table title): 100 nM as printed in title
Procedure: Patients were recruited following all the ethical requirements and the approval of the Ethical Committees of Ferrara Hospital. Blood samples were collected from 23 β-thalassemia patients after signature of the informed consent form.
The effects of isoxazole derivatives on cell growth and differentiation of erythroid precursors cells were determined by employing the two-phase liquid culture system and treated for five days with different concentration of the selected compound.
HPLC analyses were done on cell lysates derived from ErPCs of 23 patients and, through careful comparative analyses, we have monitored and quantified HbF, adult hemoglobins (HbA0 and HbA2) and the presence of α-aggregates. Generally, excess of α-globin chains is present in thalassemic patients that are deficient in β-globins, causing α-aggregates formation and precipitation. The α-aggregates reduction represents an important clinical result usually detectable in the presence of efficient HbF inducers.

Q: `CCNC(=O)c1noc(-c2cc(C(C)C)c(O)cc2O)c1NC(=O)c1ccc(OC)cc1` [Compound 1] was tested. Which “HbF induction” value did it give?
A: The value was “active in inducing HbF”.

Q: What about the “aggregates α %” value (patient Th1 ErPCs, 85 nM, untreated C− 6.70) of the same compound?
A: The value was 5.90%.

Q: What about the HbF % (patient Th1 ErPCs, 85 nM, untreated C− 15.47) of the same compound?
A: Its HbF % is 30.30%.

Q: What about the HbA2 % (patient Th1 ErPCs, 85 nM, untreated C− 31.29) of the same compound?
A: Its HbA2 % is 21.39%.

Q: What about the HbA0 % (patient Th1 ErPCs, 85 nM, untreated C− 46.54) of the same compound?
A: Its HbA0 % is 42.41%.

Q: And the “HbF induction compared with HU” value?
A: The value was “more active than HU in inducing HbF”.

Q: What about the “aggregates α %” value (patient Th10 ErPCs, 85 nM, untreated C− 11.15) of the same compound?
A: Its value is 2.26%.

Q: What about the HbF % (patient Th10 ErPCs, 85 nM, untreated C− 17.57) of the same compound?
A: Its HbF % is 35.54%.

Q: What about the HbA2 % (patient Th10 ErPCs, 85 nM, untreated C− 32.02) of the same compound?
A: The HbA2 % was 25.81%.

Q: What about the HbA0 % (patient Th10 ErPCs, 85 nM, untreated C− 39.26) of the same compound?
A: The HbA0 % was 36.39%.

Q: What does the source list for `CCNC(=O)c1noc(-c2cc(C(C)C)c(O)cc2O)c1NC(=O)CCN1CCOCC1` [Compound 2]?
A: HbF induction: active in inducing HbF; aggregates α % (patient Th1 ErPCs, 50 nM, untreated C− 6.70): 2.81%; HbF % (patient Th1 ErPCs, 50 nM, untreated C− 15.47): 21.67%; HbA2 % (patient Th1 ErPCs, 50 nM, untreated C− 31.29): 24.82%; HbA0 % (patient Th1 ErPCs, 50 nM, untreated C− 46.54): 50.70%; HbF induction compared with HU: more active than HU in inducing HbF; aggregates α % (patient Th10 ErPCs, 50 nM, untreated C− 11.15): 2.02%; HbF % (patient Th10 ErPCs, 50 nM, untreated C− 17.57): 36.36%; HbA2 % (patient Th10 ErPCs, 50 nM, untreated C− 32.02): 25.29%; HbA0 % (patient Th10 ErPCs, 50 nM, untreated C− 39.26): 36.34%

Q: Which results are given for `NC(=O)NO` [HU, hydroxyurea, reference compound]?
A: HbF induction: active in inducing HbF; HbF level in treated cells (table title) (patient Th1 ErPCs, untreated 15.47%): 24.51%; aggregates α % (patient Th1 ErPCs, 100 μM, untreated C− 6.70): 2.80%; HbF % (patient Th1 ErPCs, 100 μM, untreated C− 15.47): 24.51%; HbA2 % (patient Th1 ErPCs, 100 μM, untreated C− 31.29): 33.19%; HbA0 % (patient Th1 ErPCs, 100 μM, untreated C− 46.54): 37.61%; HbF level in treated cells (table title) (patient Th10 ErPCs, untreated 17.57%): 19.42%; aggregates α % (patient Th10 ErPCs, 100 μm, untreated C− 11.15): 11.55%; HbF % (patient Th10 ErPCs, 100 μm, untreated C− 17.57): 19.42%; HbA2 % (patient Th10 ErPCs, 100 μm, untreated C− 32.02): 34.82%; HbA0 % (patient Th10 ErPCs, 100 μm, untreated C− 39.26): 34.22%
